Reference: patent US20210290676A1, “IMPROVING THE EFFICACY AND SAFETY OF ADOPTIVE CELLULAR THERAPIES” (University of Southern California, priority 2018, published 2021)

Assays:
Type in all cases: cell-based, human
[1] = system: CD45RA+CCR7+CD62L+ T cells; assay: Flow cytometry for CD45RA, CCR7 and CD62L on inhibitor-treated T cells (all T cells); conditions: cells cultured for 14 days
Procedure: (§1) DAY 0: Blood was obtained from unidentified donor. After RBC lysis, PBMC were collected using Ficoll-Hypaque separation. […] T cells were cultured in three different conditions: • 1. XVIVO 15 medium (Lonza) with IL2 50 IU/ml, CD3 antibody (30 ng/ml) and CD28 antibody (30 ng/ml). • 2. XVIVO 15 medium (Lonza) with CD3 antibody (30 ng/ml) and CD28 antibody (30 ng/ml). • 3. XVIVO 15 medium (Lonza) with IL2 50 IU/ml DAY 1: Cells were plated in a 6-well plate at a density of 1 million cells in 2 ml/of media (as described above) and treated with different inhibitors
(§2) A second aliquot of the cells cultured for 13 days with all the treatments listed above (1-21) was washed with PBS+1% FBS, stained with CD8-PerCP, CD45RA-FITC, CCR7-PE and CD62L-APC (5% Y/100 μl/sample for each of 4 antibodies) at 4° C. for 1 h, washed twice with PBS+100 FBS and analyzed on flow cytometer to check if these drugs are enriching T stem cells showing surface expression of CD8+CD45RA+CCR7+CD62L+.
(§3) Day 0: Blood was obtained from unidentified donor. After RBC lysis, PBMC were collected using Ficoll-Hypaque separation. 200 million T cells were isolated from PBMCs using CD3 microbeads. T cells were cultured overnight in XVIVO 15 medium (Lonza) with IL2 (50 IU/ml), 30 ng/ml of CD3 and CD28 antibodies
(§4) Day 1: Cells were plated in 24-well plates at a density of 0.3 million cells/ml in each well and treated with different drugs.
(§5) On day 7, culture medium was replaced with fresh medium with fresh drugs.
(§6) On day 13, culture medium was replaced with fresh medium and fresh drugs. Half of the cells were transferred to 6-well plates.
as §2, with “14” for “13”, “above” for “above (1-21)”, “(5 ul/100 ul/sample” for “(5% Y/100 μl/sample”, “PBS+1%” for “PBS+100”, “enriching for” for “enriching”, “T” for “T stem”

[2] = system: Pgp+ (DiOC2(3)-dye effluxing) T cells; assay: DiOC2(3) dye efflux flow cytometry of inhibitor-treated T cells; conditions: treatment for 13 days, IL2 + CD3 and CD28 antibodies
Procedure: (§7) The use of P-glycoprotein (Pgp)-mediated efflux of DiOC2(3) to isolate stem like T cells for adoptive cellular therapy has been described in application no. […] In the following examples, DiOC2(3) staining was used to study the effect of different inhibitors on generation of stem like T cells.
as §1
(§8) The cell growth medium was changed in 6-well plates and fresh drugs were added at same concentration for one more week.
(§9) […] (DAY 11): Culture medium was changed and fresh drugs were added in 6-well plates.
(§10) Subsequently, cells were washed with RPMI medium and dye was effluxed at 37° C. for 90 min. Cells were washed with […], stained with CD62L-APC (5 μl/100 μl/sample) at 4° C. for 1 h, washed twice with PBS+1% FBS and analyzed on flow cytometer to check if these drugs treatment leads to increase in Pgp+/CD62L positive population.
as §3, §4, §5, §6
(§11) Day 14: An aliquot of cells with all the treatments listed above (for 13 days) was used to stain the cells with DiOC2(3) (60 ng/ml in RPMI medium) at 4° C. for 40 min, washed with RPMI medium, DiOC2(3) dye was effluxed at 37° C. for 90 min, washed with PBS+1% FBS, stained with CD62L-APC antibody. CD62L is a marker for resting T cells. (5 μl/100 μl/sample) at 4° C. for 1 h, washed twice with PBS+1% FBS and analyzed on flow cytometer to check if these drugs are affecting the dye-effluxing or Pgp+ (i.e., DiOC2(3)-dull) T-cell population.

[3] = system: CD8+CD45RA+CCR7+CD62L+ T cells; assay: Flow cytometry for CD8, CD45RA, CCR7 and CD62L on inhibitor-treated T cells; conditions: cells cultured for 14 days
Procedure: as §1, §2, §3, §4, §5, §6
as §2, with “14” for “13”, “above” for “above (1-21)”, “(5 ul/100 ul/sample” for “(5% Y/100 μl/sample”, “PBS+1%” for “PBS+100”, “enriching for” for “enriching”, “T” for “T stem”

[4] = system: Pgp+ (DiOC2(3)-dye effluxing cells) and CD62L+ T cells; assay: DiOC2(3) dye efflux plus CD62L-APC staining, flow cytometry of inhibitor-treated T cells; conditions: treatment for 13 days, IL2 + CD3 and CD28 antibodies
Procedure: as §7, §1, §8, §9, §10, §3, §4, §5, §6, §11

CCCc1cc(C)[nH]c(=O)c1CNC(=O)c1cc(-c2ccc(N3CCN(C(C)C)CC3)nc2)cc2c1cnn2C(C)C [UNC1999]
GATE P6 CD45RA(FITC)+, CCR7 (PE)+, CD62L(APC) ([1]; 100 nM): 59.08%
GATE P6 CD45RA(FITC)+, CCR7 (PE)+, CD62L(APC) ([1]; 500 nM): 60.97%
p2: pgp+ from Live cells ([2]; 100 nM): 36.8
p2: pgp+ from Live cells ([2]; 500 nM): 31.14
GATE P4 CD8(PerCP)+, CD45RA(FITC)+, CCR7 (PE)+, CD62L(APC) ([3]; 100 nM): 71.75%
GATE P4 CD8(PerCP)+, CD45RA(FITC)+, CCR7 (PE)+, CD62L(APC) ([3]; 500 nM): 74.57%
p5: double +ve pgp+ and CD62L-APC+ from Live cells ([4]; 100 nM): 11.06
p5: double +ve pgp+ and CD62L-APC+ from Live cells ([4]; 500 nM): 8.9

BI7273
GATE P6 CD45RA(FITC)+, CCR7 (PE)+, CD62L(APC) ([1]; 100 nM): 57.15%
GATE P6 CD45RA(FITC)+, CCR7 (PE)+, CD62L(APC) ([1]; 500 nM): 61.86%
p2: pgp+ from Live cells ([2]; 100 nM): 16.69
p2: pgp+ from Live cells ([2]; 500 nM): 16.34
GATE P4 CD8(PerCP)+, CD45RA(FITC)+, CCR7 (PE)+, CD62L(APC) ([3]; 100 nM): 70.33%
GATE P4 CD8(PerCP)+, CD45RA(FITC)+, CCR7 (PE)+, CD62L(APC) ([3]; 500 nM): 77.81%
p5: double +ve pgp+ and CD62L-APC+ from Live cells ([4]; 100 nM): 2.73
p5: double +ve pgp+ and CD62L-APC+ from Live cells ([4]; 500 nM): 2.38
